From US7977107B2, “Oral detection test for cannabinoid use” (LabOne, Inc., priority 2004, dated 2011)

Experiments:
[1] = Δ^9-THC metabolism in oral fluid (incubation at about 37° C., THCA assayed versus time); assay type: in vitro ADME; conditions: 10 ng/ml Δ^9-THC in certified negative oral fluid, several hours, triplicate
Procedure: In this example, Δ^9-THC metabolism in oral fluid was investigated. Δ^9-THC was incubated at about 37° C. in oral fluid for several hours. THCA levels were assayed versus time to ensure metabolism of Δ^9-THC to THCA or THCA-glucuronide in the oral cavity or mucosa was not a possible source of the measured result. This was performed in triplicate at 10 ng/ml using certified negative oral fluid samples. Δ^9-THC standard material of known purity was used.
Δ^9-THC metabolism to THCA was not detected during this experiment. Further, it has been reported that Δ^9-THC metabolism occurs in the liver. See Watanabe, et al., A cytochrome P450 isozyme having aldehyde oxygenase activity plays a major role in metabolizing cannabinoids by mouse hepatic microsomes, Biochem Pharmacol., Vol. 46 No. 3, at pp. 405-11 (August 1993).

[2] = Detection of THCA in oral fluid samples of test subjects by GC/MS/MS; assay type: in vivo, human; conditions: Group C: 26 samples screened and confirmed positive for Δ^9-THC
Excerpt: Oral fluid samples from 223 test subjects were collected with a commercially available INTERCEPT® oral fluid collection device manufactured by OraSure Technologies, Inc. (Bethlehem, Pa.) in accordance with the manufacturer's instructions. This device comprises an absorbent collection pad (e.g., cotton or a sponge) affixed to the end of a handle. The collection pad of the collection device is placed in the mouth of the subject until the collection pad is substantially saturated with oral fluid, which typically takes about four minutes.
The oral fluid samples were obtained from two drug testing facilities. The samples were divided into three groups: negative screens (A), positive screens (B), and positive confirms (C). Group A consisted of 144 oral fluid samples that had been tested by ELISA for the parent compound Δ^9-THC and were negative for this test (cutoff 4.0 ng/ml Δ^9-THC, cross reactive with THCA at 0.33 ng/ml, no confirmation with GC/MS/MS performed). […] Finally, Group C consisted of 26 oral fluid samples that screened positive by ELISA for the parent compound Δ^9-THC and were also confirmed positive for Δ^9-THC by GC/MS/MS. Each of these samples from Group A, B, and C was then tested for the presence or absence of THCA by GC/MS/MS in accordance with the present invention. […]
Quantitation was performed using the internal standard area of the 495-peak ratio with the 492-peak. […]

Molecule | Δ^9-THC metabolism to THCA [1] | THCA level in oral fluid (highest) [2]
CCCCCc1cc(O)c2c(c1)OC(C)(C)[C@@H]1CCC(C)=C[C@@H]21 [Δ^9-THC, Δ^9-tetrahydrocannabinol] | not detected | –
11-nor-Δ^9-THC carboxylic acid [THCA] | – | ≤ 142 pg/mL
